Data set [1] deals with Chloride. As to the kind of experiment: Binding affinity to chloride anions assessed as chloride efflux in egg-yolk L-alpha-phosphatidylcholine liposome model measured per lipid in presence of intravesicular NaCl/extravesicular NaNO3 by chloride ion selective electrode technique.
For a further data set, the system named is MCF7. As to the kind of experiment: Cytotoxicity against human MCF7 cells incubated for 48 hrs by MTT assay. It is filed as functional, cell-based. The settings on record: MCF7, 48 h.
For another data set, the system named is A549. In words: Cytotoxicity against human A549 cells incubated for 48 hrs by MTT assay. It is filed as functional, cell-based. The following applies: A549, 48 h. On the technique in general: Tetrazolium dyes change colour on reduction, which living cells bring about.
Data set [2] deals with HeLa. As to the kind of experiment: Cytotoxicity against human HeLa cells incubated for 48 hrs by MTT assay. It is filed as functional, cell-based.
Data set [3] relates to Chloride. As to the kind of experiment: Binding affinity to chloride anions in human HeLa cells assessed as increase in green fluorescence in cytoplasm at 5 uM incubated for 6 hrs by AO staining based analysis. It is filed as cell-based.
In data set [4] the test system is Chloride. In words: Binding affinity to chloride anions assessed as transport of chloride anions across bulky nitrobenzene membrane in U-shaped tube harboring NaCl in donor phase and NaNO3 in receiving phase at 1 mM measured for 12 hrs by chloride ion selective electrode technique.
Data set [5] deals with Chloride. In words: Binding affinity to chloride anions in human HeLa cells assessed as decrease in red fluorescence in cytoplasm at 5 uM incubated for 1.5 hrs by MR-(RR)2 staining based analysis. It is filed as cell-based.
Data set [6] deals with Chloride. As to the kind of experiment: Binding affinity to chloride anions in human HeLa cells assessed as chloride influx up to 5 uM incubated for 2 hrs by MQAE staining based analysis. It is filed as cell-based.
Data set [7] relates to Chloride. In words: Binding affinity to chloride anions assessed as fold increase in anionophoric activity in egg-yolk L-alpha-phosphatidylcholine liposome model measured per lipid by pyranine-based fluorescent assay relative to m-Bimbe.
Data set [8] has as its target Chloride. In words: Binding affinity to chloride anions assessed as anionophoric activity in egg-yolk L-alpha-phosphatidylcholine liposome model measured per lipid by pyranine-based fluorescent assay.
A further data set deals with Liposome. As to the kind of experiment: Disruption of egg-yolk L-alpha-phosphatidylcholine liposome model membrane assessed as calcein leakage by fluorescence based assay. It is filed as subcellular.
The subject of a further data set is HepG2. As to the kind of experiment: Cytotoxicity against human HepG2 cells incubated for 48 hrs by MTT assay. It is filed as functional, cell-based. The following applies: HepG2, 48 h.
The subject of data set [9] is Chloride. In words: Binding affinity to chloride anions using tetrabutylammonium chloride salt assessed as association constant by 1H NMR spectroscopy.
Data set [10] has as its system Chloride. In words: Binding affinity to chloride anions in human HeLa cells assessed as decrease in orange fluorescence in cytoplasm at 5 uM incubated for 6 hrs by AO staining based analysis relative to control. It is filed as cell-based. Set-up: scale not given: the % may be the effect or the level left.
Data set [11] in a line: Toxicity in male Balb/C nude mouse xenografted with human HeLa cells assessed as body weight change at […], ip administered on every 2 days measured after 18 days. It is filed as organism-based. The settings on record: in vivo, 432 h, time 18 day. In general terms: In xenograft studies the graft and the host belong to different species.
Data set [12] deals with HeLa. As to the kind of experiment: Antitumor activity against human HeLa cells xenografted in male Balb/C nude mouse assessed as average tumor size at 2 mg/kg, ip administered on every 2 days measured after 18 days (reference value: 1995.1 mm3). The settings on record: time 18 day. It is filed as functional.

The structures appear in SMILES notation. Active and inactive are the calls of the source. The rule behind the calls is not given here.

The IC50 is the midpoint of a concentration-inhibition curve. With `FC(F)(F)c1cc(C(F)(F)F)c2nc(-c3cccc(-c4nc5c(C(F)(F)F)cc(C(F)(F)F)cc5[nH]4)c3)[nH]c2c1`, the EC50 on Chloride [1] is reported as 1.92 mol%; at Chloride [8], 0.27 mol%. The IC50 was determined as 2.4 µM in the data set on MCF7, 1.49 µM in the data set on A549, 2.84 µM in the data set on HeLa [2] and 8.3 µM with HepG2. The Activity entry with Chloride [3] was “Active; The Result Indicates That Compound Basify Acidic Organelles”; in the data set on Chloride [5], “Active; The Result Reveals That Compound Can Alkalize Lysosomes”; in the data set on Chloride [10] it was “Active; The Result Indicates That Compound Basify Acidic Organelles”. Moreover, the outcome in the data set with Chloride [4] and in the data set with Chloride [6] was Active. The fold change (FC) with Chloride [7] was 35.8. The outcome with Liposome was inactive. Further, in the data set with Chloride [9], the Ka is 2.93 10^4/M.
As to `c1cc(-c2nc3ccccc3[nH]2)cc(-c2nc3ccccc3[nH]2)c1`, the EC50 is reported as 0.06 mol% at Chloride [1] and 2.76 10^-3mol% on Chloride [8]. Also, the fold change (FC) in the data set with Chloride [7] is 3.5 10^3No_unit. Besides, in the data set with Chloride [9], the Ka was 1.45 10^4/M.
As for `O=[N+]([O-])c1cc(-c2nc3cc(F)c(C(F)(F)F)cc3[nH]2)cc(-c2nc3cc(F)c(C(F)(F)F)cc3[nH]2)c1`, the EC50 is 0.11 mol% on Chloride [1] and 2.37 10^-2mol% at Chloride [8]. Besides, the IC50 with MCF7 came out at 3.4 µM; in the data set with A549, 10.2 µM; in the data set with HeLa [2] it was 4.23 µM; with HepG2 it was 2.2 µM. Besides, the Activity entry in the data set on Chloride [3] is “Active; The Result Indicates That Compound Basify Acidic Organelles”; with Chloride [5], “Active; The Result Reveals That Compound Can Alkalize Lysosomes”; in the data set with Chloride [10] it was 100%. The outcome in the data set on Chloride [4] and in the data set with Chloride [6] was Active. In addition, the fold change (FC) with Chloride [7] was 4.08 10^2No_unit. Also, the outcome in the data set on Liposome was inactive. Moreover, in the data set on Chloride [9], the Ka was 4.95 10^3/M.
As for `Fc1cc2nc(-c3cccc(-c4nc5cc(F)c(C(F)(F)F)cc5[nH]4)c3)[nH]c2cc1C(F)(F)F`, the EC50 is reported as 4.11 mol% on Chloride [1] and 0.64 mol% on Chloride [8]. Also, the IC50 in the data set on MCF7 was 11.2 µM; in the data set on A549 it was 28.8 µM; in the data set on HeLa [2] it was 18.3 µM; with HepG2, 11.2 µM. Moreover, the Activity result with Chloride [3] and with Chloride [10] was “Active; The Result Indicates That Compound Basify Acidic Organelles” in each case. In addition, in the data set with Chloride [4], the result was Active. Also, the fold change (FC) in the data set on Chloride [7] was determined as 15.1. The outcome with Liposome was inactive. For the same molecule, the Ka with Chloride [9] was 6.96 10^3/M.
As for `O=[N+]([O-])c1cc(-c2nc3c(C(F)(F)F)cc(C(F)(F)F)cc3[nH]2)cc(-c2nc3c(C(F)(F)F)cc(C(F)(F)F)cc3[nH]2)c1`, the EC50 is recorded as 0.02 mol% at Chloride [1] and 5.34 10^-3mol% on Chloride [8]. Besides, the IC50 in the data set on MCF7 was determined as 10.8 µM; in the data set with A549 it was 10.5 µM; in the data set on HeLa [2], 9.67 µM; with HepG2, 16.5 µM. For the same molecule, the values for the Activity result in the data set with Chloride [3], in the data set on Chloride [5] and in the data set with Chloride [10] were “Active; The Result Indicates That Compound Basify Acidic Organelles”, “Active; The Result Reveals That Compound Can Alkalize Lysosomes” and 100%, respectively. Moreover, the result in the data set with Chloride [4] and in the data set with Chloride [6] was Active. Also, the fold change (FC) in the data set with Chloride [7] is 1.81 10^3No_unit. Besides, in the data set on Liposome, the result was inactive. The Ka in the data set with Chloride [9] is 6.58 10^3/M.
On to `O=[N+]([O-])c1cc(-c2nc3ccc(C(F)(F)F)cc3[nH]2)cc(-c2nc3ccc(C(F)(F)F)cc3[nH]2)c1`, for which the EC50 was 0.3 mol% at Chloride [1] and 2 10^-3mol% on Chloride [8]. Further, the IC50 with MCF7 is 8.6 µM; in the data set on A549, 7.78 µM; in the data set on HeLa [2], 8.33 µM; in the data set on HepG2 it was 6.8 µM. In addition, the Activity result in the data set with Chloride [3] was “Active; The Result Indicates That Compound Basify Acidic Organelles”; in the data set on Chloride [5], “Active; The Result Reveals That Compound Can Alkalize Lysosomes”; in the data set with Chloride [10] it was “Active; The Result Indicates That Compound Basify Acidic Organelles”. Moreover, the result with Chloride [4] and in the data set with Chloride [6] was Active. Moreover, the fold change (FC) in the data set on Chloride [7] was 4.84 10^3No_unit. In the data set on Liposome, the outcome was inactive. For the same molecule, in the data set on Chloride [9], the Ka was 5.25 10^3/M.
With `COc1cccc2c1C(=O)c1c(O)c3c(c(O)c1C2=O)C[C@@](O)(C(=O)CO)C[C@@H]3O[C@H]1C[C@H](N)[C@H](O)[C@H](C)O1` [DOXORUBICIN], the IC50 with MCF7 amounted to 0.26 µM; in the data set with HeLa [2] it was 0.11 µM; with HepG2, 2.3 µM. Moreover, the Activity entry in data set [11] is “Toxic”; in the data set on HeLa [12], 1093.2 mm3.
Regarding `Fc1cc(-c2nc3ccc(C(F)(F)F)cc3[nH]2)cc(-c2nc3ccc(C(F)(F)F)cc3[nH]2)c1`, the EC50 at Chloride [1] is recorded as 0.94 mol%; at Chloride [8], 1.54 10^-2mol%. For the same molecule, the half-maximal inhibitory concentration (IC50) in the data set with MCF7 was determined as 3.17 µM; in the data set on A549 it was 4.53 µM; in the data set with HeLa [2], 3.53 µM; in the data set with HepG2 it was 1.67 µM. Also, the Activity entry with Chloride [3] and in the data set with Chloride [10] was “Active; The Result Indicates That Compound Basify Acidic Organelles” each time. In the data set on Chloride [4], the outcome was Active. Besides, the fold change (FC) with Chloride [7] is 6.28 10^2No_unit. Also, the outcome in the data set on Liposome was inactive. Moreover, in the data set with Chloride [9], the Ka is 1.17 10^4/M.
For the molecule `Fc1cc(-c2nc3cc(F)c(C(F)(F)F)cc3[nH]2)cc(-c2nc3cc(F)c(C(F)(F)F)cc3[nH]2)c1`, the figures for the EC50 on Chloride [1] and on Chloride [8] were 0.2 mol% and 3.79 10^-2mol%, respectively. Further, the IC50 in the data set with MCF7 turned out to be 3.33 µM; in the data set on A549, 3.97 µM; with HeLa [2] it was 3.9 µM; in the data set with HepG2, 3.13 µM. Further, the Activity result in the data set on Chloride [3] and in the data set with Chloride [10] was “Active; The Result Indicates That Compound Basify Acidic Organelles” each time. Besides, in the data set with Chloride [4], the outcome was Active. The fold change (FC) in the data set on Chloride [7] is 2.55 10^2No_unit. Also, the result in the data set with Liposome was inactive. Further, in the data set with Chloride [9], the Ka was 1.01 10^3/M.
As to `FC(F)(F)c1ccc2nc(-c3cccc(-c4nc5ccc(C(F)(F)F)cc5[nH]4)c3)[nH]c2c1`, the EC50 at Chloride [1] is > 10 mol%; at Chloride [8], 9.67 mol%. For the same molecule, the IC50 stood at 10.5 µM in the data set with MCF7, 12.8 µM with A549, 12.3 µM in the data set with HeLa [2] and 10.6 µM in the data set on HepG2. Also, the Activity result in the data set on Chloride [3] and in the data set on Chloride [10] was “Not active; Only Slight Activity Was Observed” each time. For the same molecule, the outcome with Chloride [4] was Active. The outcome in the data set on Liposome was inactive. In addition, the Ka in the data set with Chloride [9] was 3.51 10^3/M.

The record behind these values is ChEMBL document CHEMBL6178013, “Ferroptosis of Cancer Cells via Tubulin Degradation and Mitochondrial Dysfunction: A Novel Mechanism of Anticancer Effect for Small-Molecule Anion Transporters” (J Med Chem, 2025).
